# From patent publication US20240279283A1, “CYCLIC PEPTIDE ANTIBIOTICS” (priority 2021, published 2024)
# Bridge positions count the residues as written; N and C are the ends. Square brackets hold non-standard residues; d marks the D form. Peptide text beside a SMILES is read from it. 1Nal = N[C@@H](Cc1cccc2ccccc12)C(=O)O; His(π-Me) = Cn1cncc1C[C@H](N)C(=O)O; NMeY = CN[C@@H](Cc1ccc(O)cc1)C(=O)O; NMeR = CN[C@@H](CCCNC(=N)N)C(=O)O; NMeF = CN[C@@H](Cc1ccccc1)C(=O)O; aThr = C[C@H](O)[C@H](N)C(=O)O; Nle = CCCC[C@H](N)C(=O)O; Abu = CC[C@H](N)C(=O)O
# What was measured:
# Format in all cases: cell-based
# Conditions in all cases: LB broth, 5×10^5 CFU/ml, 37° C., 18 hours, scored by eye
# E. coli BW25113 = assay: Minimum Inhibitory Concentration (MIC) determination, E. coli BW25113; set-up: unit not given here
# Protocol: (§1) MICs were determined by performing two-fold serial dilutions of peptides in LB broth to a final volume of 0.1 ml in round-bottom 96-well assay plates (Corning Life Sciences No 3788). Peptides were initially resuspended in 100% DMSO to 10 mM and subsequently diluted in LB medium to the appropriate concentration. Each well was inoculated with 5×10^5 CFU/ml of the screening stain and incubated at 37° C. without agitation for 18 hours. Plates were scored by eye, and the lowest compound concentration preventing visible growth was determined to be the MIC.
# E. coli 25922 = assay: Minimum Inhibitory Concentration (MIC) determination, E. coli 25922; set-up: unit not given here
# Protocol: as §1
# E. coli 25922 IMP = assay: Minimum Inhibitory Concentration (MIC) determination, E. coli 25922 IMP
# Protocol: as §1
# E. cloacae ATCC222 = assay: Minimum Inhibitory Concentration (MIC) determination, E. cloacae ATCC222; set-up: unit not given here
# Protocol: as §1
# K. pneumoniae ATCC43816 = assay: Minimum Inhibitory Concentration (MIC) determination, K. pneumoniae ATCC43816; set-up: unit not given here
# Protocol: as §1
Structure (SMILES),MIC E. coli BW25113 WUXI::MIC (E. coli BW25113),MIC E. coli 25922 WUXI::MIC (E. coli 25922),MIC E. coli 25922 IMP WUXI::MIC (E. coli 25922 IMP),MIC E. cloacae ATCC222 WUXI::MIC (E. cloacae ATCC222),MIC K. pneumoniae ATCC43816 Wuxi::MIC (K. pneumoniae ATCC43816)
"CC[C@@H]1NC(=O)[C@H](Cc2ccc(O)cc2)NC(=O)CSC[C@@H](C(=O)NCC(N)=O)NC(=O)[C@H](Cc2cncn2C)NC(=O)[C@H](CCCNC(=N)N)NC(=O)[C@H](Cc2c[nH]cn2)NC(=O)[C@H](Cc2ccc(O)cc2)N(C)C(=O)[C@H](CCCNC(=N)N)NC(=O)[C@H](CO)NC(=O)CNC(=O)[C@H](Cc2c[nH]cn2)NC(=O)[C@H](Cc2cccc3ccccc23)NC1=O [Compound 19, (3R,6S,9S,12S,15S,18S,21S,27S,30S, 33S,36S)-N-(2-amino-2-oxo-ethyl)-33-ethyl-9,18-bis(3-guanidinopropyl)-21-(hydroxymethyl)-15,36-bis[(4-hydroxyphenyl)methyl]-12,27-bis(1H-imidazol-4-ylmethyl)-16-methyl-6-[(3-methylimidazol-4-yl)methyl]-30-(1-naphthylmethyl)-5,8,11,14,17,20,23,26,29,32,35,38-dodecaoxo-1-thia-4,7,10,13,16,19,22,25,28,31,34,37-dodecazacyclononatriacontane-3-carboxamide] ({CH2CO}-Y[Abu][1Nal]HGSR[NMeY]HR[His(π-Me)]CG-NH2; thioether N-12)",6.3,3.1,0.0039,0.39,6.3
CC[C@@H]1NC(=O)[C@H](Cc2ccccc2)NC(=O)CSC[C@@H](C(=O)NCC(N)=O)NC(=O)[C@H](Cc2cncn2C)NC(=O)[C@H](CCCNC(=N)N)NC(=O)[C@H](Cc2c[nH]cn2)NC(=O)[C@H](Cc2ccc(O)cc2)N(C)C(=O)[C@H](CCCNC(=N)N)NC(=O)[C@H](CO)NC(=O)[C@@H](C)NC(=O)[C@H](Cc2c[nH]cn2)NC(=O)[C@H](Cc2cccc3ccccc23)NC1=O [Compound 26] ({CH2CO}-F[Abu][1Nal]H[dA]SR[NMeY]HR[His(π-Me)]CG-NH2; thioether N-12),6.3,3.1,0.0039,0.78,25
CC[C@@H]1NC(=O)[C@H](Cc2ccccc2)NC(=O)CSC[C@@H](C(=O)NCC(N)=O)NC(=O)[C@H](Cc2cncn2C)NC(=O)[C@H](CCCNC(=N)N)N(C)C(=O)[C@H](Cc2c[nH]cn2)NC(=O)[C@H](Cc2ccc(O)cc2)N(C)C(=O)[C@H](CCCNC(=N)N)NC(=O)[C@H](CO)NC(=O)CNC(=O)[C@H](Cc2c[nH]cn2)NC(=O)[C@H](Cc2cccc3ccccc23)NC1=O [Compound 34] ({CH2CO}-F[Abu][1Nal]HGSR[NMeY]H[NMeR][His(π-Me)]CG-NH2; thioether N-12),100,41.667,0.063,6.3,25
CCCC[C@@H]1NC(=O)CSC[C@@H](C(=O)NCC(N)=O)NC(=O)[C@H](Cc2cncn2C)NC(=O)[C@H](CCCNC(=N)N)NC(=O)[C@H](Cc2c[nH]cn2)NC(=O)[C@H](Cc2ccc(O)cc2)N(C)C(=O)[C@H](CCCNC(=N)N)NC(=O)[C@H](CO)NC(=O)CNC(=O)[C@H](Cc2c[nH]cn2)NC(=O)[C@H](Cc2cccc3ccccc23)NC(=O)[C@H](CC)NC1=O [Compound 20] ({CH2CO}-[Nle][Abu][1Nal]HGSR[NMeY]HR[His(π-Me)]CG-NH2; thioether N-12),25,13,0.0078,1.6,25
CC[C@@H]1NC(=O)[C@H](Cc2ccccc2)NC(=O)CSC[C@@H](C(=O)NCC(N)=O)NC(=O)[C@H](Cc2cncn2C)NC(=O)[C@H](CCCNC(=N)N)NC(=O)[C@H](Cc2cnc[nH]2)NC(=O)[C@H](Cc2ccc(O)cc2)N(C)C(=O)[C@H](CCCNC(=N)N)NC(=O)[C@H](CO)NC(=O)CNC(=O)[C@H](C)NC(=O)[C@H](Cc2cccc3ccccc23)NC1=O (stereo in doubt) [Compound 35],100,100,3.1,100,100
CC[C@@H]1NC(=O)[C@H](Cc2ccccc2)NC(=O)CSC[C@@H](C(=O)NCC(N)=O)NC(=O)[C@H](Cc2cncn2C)NC(=O)[C@H](CCCNC(=N)N)NC(=O)[C@H](Cc2cnc[nH]2)NC(=O)[C@H](Cc2ccc(O)cc2)N(C)C(=O)[C@H](CCCNC(=N)N)NC(=O)[C@H](CO)NC(=O)CNC(=O)[C@H](Cc2cnc[nH]2)NC(=O)[C@H](Cc2cccc3ccccc23)NC1=O (racemic) [Compound 16],14.767,27.32,1.577,0.2633,8.5333
CC[C@@H]1NC(=O)[C@H](Cc2ccccc2)NC(=O)CSC[C@@H](C(=O)NCC(N)=O)NC(=O)[C@H](Cc2cncn2C)NC(=O)[C@H](CCCNC(=N)N)NC(=O)[C@H](Cc2c[nH]cn2)NC(=O)[C@H](Cc2ccc(O)cc2)N(C)C(=O)[C@H](CCCNC(=N)N)NC(=O)[C@H]([C@H](C)O)NC(=O)CNC(=O)[C@H](Cc2c[nH]cn2)NC(=O)[C@H](Cc2cccc3ccccc23)NC1=O [Compound 31] ({CH2CO}-F[Abu][1Nal]HG[aThr]R[NMeY]HR[His(π-Me)]CG-NH2; thioether N-12),50,25,0.016,6.3,50
CC[C@H](C)[C@@H]1NC(=O)[C@H]([C@@H](C)O)NC(=O)[C@H](Cc2cncn2C)NC(=O)[C@H](Cc2ccccc2)NC(=O)CSC[C@@H](C(=O)NCC(N)=O)NC(=O)[C@H](Cc2ccc(O)cc2)NC(=O)[C@H](Cc2ccc(Cl)cc2)NC(=O)[C@H](Cc2ccc(O)cc2)NC(=O)[C@H](CCCNC(=N)N)NC(=O)[C@H](Cc2ccccc2)NC(=O)C(C)(C)NC(=O)[C@H](CO)NC(=O)[C@H](CCCCN)NC(=O)[C@H](CCCNC(=N)N)NC1=O (mixture of isomers) [Compound 60],16,16,1,,
CC[C@H](C)[C@@H]1NC(=O)[C@H]([C@@H](C)O)NC(=O)[C@H](Cc2cncn2C)NC(=O)[C@H](Cc2ccccc2)NC(=O)CSC[C@@H](C(=O)NCC(N)=O)NC(=O)[C@H](Cc2ccc(O)cc2)NC(=O)[C@H](Cc2c[nH]c3ccccc23)NC(=O)[C@H](Cc2ccc(O)cc2)NC(=O)[C@H](CCCCN)NC(=O)[C@H](Cc2ccccc2)NC(=O)C(C)(C)NC(=O)[C@H](CO)NC(=O)[C@H](CCCCN)NC(=O)[C@H](CCCNC(=N)N)NC1=O (racemic) [Compound 61],16,16,1,,
"CC[C@@H]1NC(=O)[C@H](Cc2ccccc2)NC(=O)CSC[C@@H](C(=O)NCC(N)=O)NC(=O)[C@H](Cc2cncn2C)NC(=O)[C@H](CCCNC(=N)N)NC(=O)[C@H](Cc2c[nH]cn2)NC(=O)[C@H](Cc2ccc(O)cc2)NC(=O)[C@H](CCCNC(=N)N)NC(=O)[C@H](CO)NC(=O)CNC(=O)[C@H](Cc2c[nH]cn2)NC(=O)[C@H](Cc2cccc3ccccc23)NC1=O [Compound 32, (3R,6S,9S,12S,15S,18S,21S,27S,30S, 33S,36S)-N-(2-amino-2-oxo-ethyl)-36-benzyl-33-ethyl-9,18-bis(3-guanidinopropyl)-21-(hydroxymethyl)-15-[(4-hydroxyphenyl)methyl]-12,27-bis(1H-imidazol-4-ylmethyl)-6-[(3-methylimidazol-4-yl)methyl]-30-(1-naphthylmethyl)-5,8,11,14,17,20,23,26,29,32,35,38-dodecaoxo-1-thia-4,7,10,13,16,19,22,25,28,31,34,37-dodecazacyclononatriacontane-3-carboxamide] ({CH2CO}-F[Abu][1Nal]HGSRYHR[His(π-Me)]CG-NH2; thioether N-12)",,25,0.031,,
CC[C@@H]1NC(=O)[C@H](Cc2ccccc2)N(C)C(=O)CSC[C@@H](C(=O)NCC(N)=O)NC(=O)[C@H](Cc2cncn2C)NC(=O)[C@H](CCCNC(=N)N)NC(=O)[C@H](Cc2c[nH]cn2)NC(=O)[C@H](Cc2ccc(O)cc2)N(C)C(=O)[C@H](CCCNC(=N)N)NC(=O)[C@H](CO)NC(=O)CNC(=O)[C@H](Cc2c[nH]cn2)NC(=O)[C@H](Cc2cccc3ccccc23)NC1=O [Compound 23] ({CH2CO}-[NMeF][Abu][1Nal]HGSR[NMeY]HR[His(π-Me)]CG-NH2; thioether N-12),,25,0.016,,
CC[C@H](C)[C@@H]1NC(=O)[C@H]([C@@H](C)O)NC(=O)[C@H](Cc2cncn2C)NC(=O)[C@H](Cc2ccccc2)NC(=O)CSC[C@@H](C(=O)NCC(N)=O)NC(=O)[C@H](Cc2ccc(O)cc2)NC(=O)[C@H](Cc2c[nH]c3ccccc23)NC(=O)[C@H](Cc2ccc(O)cc2)NC(=O)[C@H](CCCNC(=N)N)NC(=O)[C@H](Cc2ccccc2)NC(=O)C(C)(C)NC(=O)[C@H](CO)NC(=O)[C@H](CCCCN)NC(=O)[C@H](CCCNC(=N)N)NC1=O (racemic) [Compound 59],16,8,1,,
